Results as given in PubChem BioAssay (NCI).
“And” between values parts separate entries of the source, which are not always exact repeats. Equal entries are not always repeated.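 Grown in 96-well plates, cells were treated for 48 hours with each compound at five concentrations. Insufficient inhibition: endpoint recorded as highest concentration tested. TGI is the concentration that stops growth completely.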

Key:
Assay in all cases: inhibition of tumour cell growth, NCI panel, 48 h
CAKI-1 renal = tested on: CAKI-1 renal
KM12 colon = tested on: KM12 colon
PC-3 prostate = tested on: PC-3 prostate
MDA-MB-231 breast = tested on: MDA-MB-231 breast
SR leukemia = tested on: SR leukemia
SK-OV-3 ovarian = tested on: SK-OV-3 ovarian
UO-31 renal = tested on: UO-31 renal
786-0 renal = tested on: 786-0 renal
MCF7 breast = tested on: MCF7 breast
SK-MEL-28 melanoma = tested on: SK-MEL-28 melanoma

SMILES	TGI (CAKI-1 renal)	TGI (KM12 colon)	TGI (PC-3 prostate)	TGI (MDA-MB-231 breast)	TGI (SR leukemia)	TGI (SK-OV-3 ovarian)	TGI (UO-31 renal)	TGI (786-0 renal)	TGI (MCF7 breast)	TGI (SK-MEL-28 melanoma)
COc1ccc(N2C(=O)C3c4[nH]c5c(C)cccc5c4C4CCC(C(C)C)CC4C3C2=O)cc1 (stereo not given)	37.6 µM	19.9 µM	25.2 µM	34.8 µM	32.5 µM	47.7 µM	31.4 µM	19.5 µM	31.4 µM	31.5 µM
C=C1c2nc3ccccc3n2C=C(c2ccc(C)cc2)N1c1ccc(OC)cc1	> 96.9 µM	63.3 µM	> 100 µM	> 100 µM	19.8 µM	> 100 µM	> 100 µM	> 100 µM	> 100 µM	> 100 µM
C[n+]1cccc2ccc3cccnc3c21	> 100 µM	96.6 µM	> 100 µM	> 100 µM	> 100 µM	> 100 µM	> 100 µM	> 100 µM	> 100 µM	> 100 µM
O=[N+]([O-])c1ccc(-n2nc3ccc4nonc4c3n2)cc1	73.7 µM	> 100 µM	> 100 µM	> 100 µM	> 100 µM	56.5 µM	62.9 µM	89.4 µM	> 100 µM	> 100 µM
COC(=O)C1OC(O[C@H]2CC[C@]3(C)[C@H]4CC=C5[C@@H]6CC(C)(C)CC[C@]6(C(=O)OC6OCC(O)C(O)C6OC6OC(C)C(OC7OCC(O)C(O)C7O)C(O)C6O)[C@H](O)C[C@@]5(C)[C@]4(C)CC[C@H]3C2(C)C)C(O)C(O)C1O (stereo not given in full)	11.2 µM and 14.9 µM	13.1 µM and 13 µM	16.9 µM and 16.3 µM	7.48 µM and 4.39 µM	> 100 µM and 13.4 µM	23.5 µM and 26.3 µM	3.54 µM and 5.18 µM	19 µM and 21.8 µM	10.3 µM and 4.43 µM	3.57 µM and 4.63 µM
CC1OC(OC2C(O[C@H]3CC[C@@]4(C)C(=CC[C@H]5[C@@H]6C[C@@H]7O[C@]8(CC[C@@H](C)CO8)[C@@H](C)[C@@H]7[C@@]6(C)CC[C@@H]54)C3)OC(CO)C(O)C2OC2OC(CO)C(O)C(O)C2O)C(O)C(O)C1O (stereo not given in full)	5.07 µM	4.49 µM	3.55 µM	2.98 µM	> 100 µM	3.19 µM	3.5 µM	2.97 µM	4.55 µM	3.68 µM
COc1cc2c(/C=C3/C(=O)Nc4ccccc43)c(Cl)n(Cc3ccc(Cl)cc3)c2cc1C	0.834 µM	1.02 µM	16.5 µM	0.754 µM	0.43 µM	2.85 µM	17.6 µM	1.4 µM	31.8 µM	22.9 µM
CCOC(=O)c1cc(-c2ccc(OC)cc2)c([N+](=O)[O-])[nH]1	> 10 µM	> 10 µM	> 10 µM	> 10 µM	> 10 µM	> 10 µM	> 10 µM	> 10 µM	> 10 µM	> 10 µM
O=C1Nc2ccccc2/C1=C\c1c(Cl)n(-c2ccccc2)c2ccccc12	21.9 µM	14 µM	60.3 µM	13.7 µM	> 100 µM	24 µM	16 µM	7.71 µM	88 µM	> 100 µM
CC1=NN(C(=O)CC(=O)Nc2cccc(C)c2)C(=O)C1N=Nc1ccc(S(=O)(=O)CCOS(=O)(=O)O)cc1 (stereo not given)	2.96 µM	13.9 µM	11.2 µM	14.8 µM	> 100 µM	17 µM	10.5 µM	12.9 µM	13.4 µM	19.7 µM
COC1(CC[C@@H](C)COC2OC(CO)C(O)C(O)C2O)OC2C[C@H]3[C@@H]4CC[C@H]5C[C@@H](OC6OC(CO)C(OC7OC(CO)C(O)C(O)C7O)C(O)C6OC6OC(C)C(O)C(O)C6O)[C@H](O)C[C@]5(C)[C@H]4CC[C@]3(C)C2[C@@H]1C (stereo not given in full)	4.29 µM	5.02 µM	3.45 µM	3.66 µM	16.8 µM	3.28 µM	3.31 µM	4.04 µM	7.84 µM	3.37 µM
Oc1ccc(C(O)C2CCCCN2)cc1O (stereo not given)	> 100 µM	> 100 µM	> 100 µM	> 100 µM	> 100 µM	> 100 µM	> 100 µM	35.2 µM	> 100 µM	> 100 µM
COc1ccc(-c2ccc(C(=O)C=P(c3ccccc3)(c3ccccc3)c3ccccc3)cc2)cc1	42 µM	36.6 µM	49 µM	30.7 µM	73.6 µM	34.9 µM	13 µM	37.5 µM	30.2 µM	32 µM
CCCCCC[C@H]([C@H](C)O)n1cnc2c(N)ncnc21	> 100 µM	> 100 µM	> 100 µM	> 100 µM	> 100 µM	> 100 µM	> 100 µM	> 100 µM	> 100 µM	> 100 µM
O=S(=O)(Nc1nc2ccccc2nc1N1CCCCCC1)c1ccccc1	> 100 µM	52 µM	77.4 µM	> 100 µM	> 100 µM	89.6 µM	33.9 µM	> 100 µM	> 100 µM	> 100 µM
O=c1c2cc(Br)cc(Br)c2[nH]c(=S)n1-c1ccc(N=Nc2ccc(O)c3cccnc23)cc1	> 100 µM	> 100 µM	> 100 µM	> 100 µM	> 100 µM	> 100 µM	> 100 µM	> 100 µM	25.9 µM	> 100 µM
N#Cc1c(NC(=S)Nc2ccc(Cl)cc2)sc2c1CCN(N1CCc3c(sc(NC(=S)Nc4ccc(Cl)cc4)c3C#N)C1)C2	> 100 µM	> 100 µM	> 100 µM	27.2 µM	> 100 µM	> 100 µM	59.9 µM	58.8 µM	> 100 µM	> 100 µM
C/C(=N\Nc1nc2ccccc2s1)c1ccncn1	12.2 µM	16.6 µM	> 43 µM	> 46.9 µM	> 100 µM	> 32.1 µM	10.2 µM	> 72.4 µM	> 100 µM	> 100 µM
